Assay results from PubChem BioAssay AID248 (DTP/NCI, 2004).
Values joined by “and” are separate entries in the source; they are usually repeats but may differ in a detail not shown here. Equal values may be shown once. Inconclusive results and toxic doses are left out. No stated cut-off is given here; in the data, active means T/C of 150% or more; inactive means T/C below 125%.

Test system: L1210 leukemia ip in BDF1 mice, survival T/C
Test: NCI In Vivo Anticancer Drug Screen. Data for tumor model L1210 Leukemia (intraperitoneal) in B6D2F1 (BDF1) mice
Settings: endpoint: mean survival time, higher = longer survival
Summary of the method: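 Read-out is survival time, reported as the treated-group measurement over the vehicle-control measurement.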

[1] = dose: 100.0 mg/kg/injection, schedule: Q01DX009 (ip), vehicle: Klucel (hydroxypropylcellulose) (HPC)
[2] = dose: 100.0 mg/kg/injection, schedule: Q04DX003 (ip), vehicle: Klucel (hydroxypropylcellulose) (HPC)
[3] = dose: 200.0 mg/kg/injection, schedule: Q01DX009 (ip), vehicle: Klucel (hydroxypropylcellulose) (HPC)
[4] = dose: 200.0 mg/kg/injection, schedule: Q04DX003 (ip), vehicle: Klucel (hydroxypropylcellulose) (HPC)
[5] = dose: 400.0 mg/kg/injection, schedule: Q01DX009 (ip), vehicle: Klucel (hydroxypropylcellulose) (HPC)
[6] = dose: 400.0 mg/kg/injection, schedule: Q04DX003 (ip), vehicle: Klucel (hydroxypropylcellulose) (HPC)
[7] = dose: 100.0 mg/kg/injection, schedule: Q01DX009 (ip), vehicle: saline
[8] = dose: 100.0 mg/kg/injection, schedule: Q04DX003 (ip), vehicle: saline
[9] = dose: 200.0 mg/kg/injection, schedule: Q01DX009 (ip), vehicle: saline
[10] = dose: 200.0 mg/kg/injection, schedule: Q04DX003 (ip), vehicle: saline
[11] = dose: 400.0 mg/kg/injection, schedule: Q01DX009 (ip), vehicle: saline
[12] = dose: 400.0 mg/kg/injection, schedule: Q04DX003 (ip), vehicle: saline
[13] = dose: 100.0 mg/kg/injection, schedule: Q01DX001 (ip), vehicle: saline
[14] = dose: 200.0 mg/kg/injection, schedule: Q01DX001 (ip), vehicle: saline
[15] = dose: 400.0 mg/kg/injection, schedule: Q01DX001 (ip), vehicle: saline
[16] = dose: 25.0 mg/kg/injection, schedule: Q01DX009 (ip), vehicle: saline with Tween-80
[17] = dose: 100.0 mg/kg/injection, schedule: Q04DX003 (ip), vehicle: saline with Tween-80
[18] = dose: 200.0 mg/kg/injection, schedule: Q04DX003 (ip), vehicle: saline with Tween-80

Measured: T/C

Clc1ccc2c(c1)C(Nc1cc3c4ccccc4ccc3c3ccccc13)c1cc(Cl)cc(Cl)c1-2 (stereo not drawn)
inactive: [1] 88 % of control | [2] 90 % of control | [3] 88 % of control | [4] 95 % of control | [5] 86 % of control | [6] 93 % of control

O=S(=O)(OCC1C2CCC1CC2)c1ccccc1 (stereo not drawn)
inactive: dose: 100.0 mg/kg/injection, schedule: Q01DX009 (ip), vehicle: other 92 % of control | dose: 100.0 mg/kg/injection, schedule: Q04DX003 (ip), vehicle: other 104 % of control | dose: 200.0 mg/kg/injection, schedule: Q01DX009 (ip), vehicle: other 94 % of control | dose: 200.0 mg/kg/injection, schedule: Q04DX003 (ip), vehicle: other 94 % of control | dose: 400.0 mg/kg/injection, schedule: Q01DX009 (ip), vehicle: other 101 % of control | dose: 400.0 mg/kg/injection, schedule: Q04DX003 (ip), vehicle: other 89 % of control

OCc1cccc(F)c1
inactive: [7] 98 % of control | [8] 105 % of control | [9] 95 % of control | [10] 102 % of control | [11] 98 % of control | [12] 104 % of control

COc1cc(/C=N/N2CCN(/N=C/c3cc(OC)c(OC)c(OC)c3)CC2)cc(OC)c1OC
inactive: [2] 103 % of control | [4] 101 % of control | [6] 103 % of control

COc1ccc2c(c1)CCC(C)(C#N)C2=O (stereo not drawn)
inactive: dose: 100.0 mg/kg/injection, schedule: Q01DX009 (ip), vehicle: saline sonified 91 % of control | dose: 200.0 mg/kg/injection, schedule: Q01DX009 (ip), vehicle: saline sonified 96 % of control | dose: 400.0 mg/kg/injection, schedule: Q01DX009 (ip), vehicle: saline sonified 90 % of control

O=C(Nc1ccccc1F)Nc1cccc2ccc(O)cc12
inactive: dose: 100.0 mg/kg/injection, schedule: Q01DX009 (ip), vehicle: alcohol 95 % of control | dose: 200.0 mg/kg/injection, schedule: Q01DX009 (ip), vehicle: alcohol 98 % of control | dose: 400.0 mg/kg/injection, schedule: Q01DX009 (ip), vehicle: alcohol 93 % of control

c1ccncc1
inactive: dose: 6.25 mg/kg/injection, schedule: Q01DX009 (ip), vehicle: alcohol 96 % of control | dose: 12.5 mg/kg/injection, schedule: Q01DX009 (ip), vehicle: alcohol 93 % of control | dose: 25.0 mg/kg/injection, schedule: Q01DX009 (ip), vehicle: alcohol 93 % of control | [1] 88 % of control | [7] 93 % of control | [2] 101 % of control | [8] 101 % of control | [9] 93 % of control | [4] 106 % of control | [10] 89 % of control | [11] 86 % of control | [6] 95 % of control | [12] 91 % of control

O=C1CCC(=O)N1c1ccc([I+]c2ccc(N3C(=O)CCC3=O)cc2)cc1
inactive: dose: 50.0 mg/kg/injection, schedule: Q01DX001 (ip), vehicle: saline 103 % of control | [13] 103 % of control | [14] 105 % of control | [15] 103 % of control

N#Cc1cc2c(N)[nH]nc2nc1N
inactive: dose: 25.0 mg/kg/injection, schedule: Q01DX009 (ip), vehicle: Klucel (hydroxypropylcellulose) (HPC) 89 % of control | dose: 50.0 mg/kg/injection, schedule: Q01DX009 (ip), vehicle: Klucel (hydroxypropylcellulose) (HPC) 93 % of control | [1] 86 % of control and 90 % of control | [2] 98 % of control | [4] 95 % of control | [6] 101 % of control

N#C/C(=C\C1C(Cl)CCCC1Cl)C1CCC([N+](=O)[O-])CC1 (stereo not drawn)
inactive: dose: 100.0 mg/kg/injection, schedule: Q04DX002 (ip), vehicle: saline with Tween-80 101 % of control | dose: 200.0 mg/kg/injection, schedule: Q04DX002 (ip), vehicle: saline with Tween-80 97 % of control | dose: 400.0 mg/kg/injection, schedule: Q04DX002 (ip), vehicle: saline with Tween-80 101 % of control

O=C(Sc1ccccc1)C1OC1c1ccccc1 (stereo not drawn)
inactive: dose: 100.0 mg/kg/injection, schedule: Q04DX003 (ip), vehicle: alcohol 98 % of control | dose: 200.0 mg/kg/injection, schedule: Q04DX003 (ip), vehicle: alcohol 92 % of control | dose: 400.0 mg/kg/injection, schedule: Q04DX003 (ip), vehicle: alcohol 86 % of control

O=C(COc1ccccc1Cl)NCc1ccc(Cl)cc1
inactive: [1] 92 % of control | [2] 93 % of control | [3] 88 % of control | [4] 95 % of control | [5] 103 % of control | [6] 93 % of control

COC(=O)c1csc(CCN)n1
inactive: [8] 102 % of control | [10] 94 % of control | [12] 97 % of control

c1cc(Nc2ccncc2)ccn1
inactive: dose: 6.25 mg/kg/injection, schedule: Q01DX009 (ip), vehicle: saline with Tween-80 97 % of control | dose: 12.5 mg/kg/injection, schedule: Q01DX009 (ip), vehicle: saline with Tween-80 95 % of control | [16] 99 % of control | dose: 25.0 mg/kg/injection, schedule: Q04DX003 (ip), vehicle: saline with Tween-80 97 % of control

N#CCCn1c(=S)sc2ccccc21
inactive: dose: 50.0 mg/kg/injection, schedule: Q04DX003 (ip), vehicle: saline with Tween-80 103 % of control | [17] 100 % of control | [18] 106 % of control

O=C(O)CNc1ccccc1C(=O)O
inactive: [1] 105 % of control | [2] 102 % of control | [3] 98 % of control | [4] 97 % of control | [5] 92 % of control | [6] 96 % of control

Clc1nc2ccccc2s1.Clc1nc2ccccc2s1.Clc1nc2ccccc2s1.Clc1nc2ccccc2s1.[Cl][Rh][Cl]
inactive: dose: 3.13 mg/kg/injection, schedule: Q04DX003 (ip), vehicle: distilled water + Tween-80 94 % of control | dose: 6.25 mg/kg/injection, schedule: Q04DX003 (ip), vehicle: distilled water + Tween-80 96 % of control | dose: 12.5 mg/kg/injection, schedule: Q04DX003 (ip), vehicle: distilled water + Tween-80 96 % of control | dose: 25.0 mg/kg/injection, schedule: Q04DX003 (ip), vehicle: distilled water + Tween-80 102 % of control | dose: 50.0 mg/kg/injection, schedule: Q04DX003 (ip), vehicle: distilled water + Tween-80 103 % of control | dose: 100.0 mg/kg/injection, schedule: Q04DX003 (ip), vehicle: distilled water + Tween-80 102 % of control | dose: 200.0 mg/kg/injection, schedule: Q04DX003 (ip), vehicle: distilled water + Tween-80 103 % of control

COC(=O)C1OC1c1cc(Br)ccc1OC (stereo not drawn)
inactive: [13] 102 % of control | [14] 103 % of control | [15] 102 % of control

CCN(CC)CCCC(C)Nc1nc(/C=C/c2ccc(Cl)cc2)nc(Cl)c1-c1ccc(Cl)cc1 (stereo not drawn)
inactive: [13] 89 % of control | [2] 95 % of control | [14] 88 % of control | [4] 101 % of control | [15] 96 % of control | [6] 104 % of control

O=C1CCC2(CCC(=O)O2)O1
inactive: dose: 50.0 mg/kg/injection, schedule: Q01DX009 (ip), vehicle: saline 100 % of control | [7] 100 % of control | [9] 92 % of control

Cc1ccc(C(O)C(=O)O)cc1 (stereo not drawn)
inactive: dose: 75.0 mg/kg/injection, schedule: Q01DX001 (ip), vehicle: acetone 100 % of control | dose: 150.0 mg/kg/injection, schedule: Q01DX001 (ip), vehicle: acetone 96 % of control

O=C1OC(=O)C2CCC12 (stereo not drawn)
inactive: dose: 75.0 mg/kg/injection, schedule: Q01DX001 (ip), vehicle: saline 93 % of control | [7] 91 % of control | [8] 98 % of control | dose: 150.0 mg/kg/injection, schedule: Q01DX001 (ip), vehicle: saline 101 % of control | [9] 93 % of control | [10] 101 % of control | dose: 300.0 mg/kg/injection, schedule: Q01DX001 (ip), vehicle: saline 112 % of control | [12] 98 % of control

COC(=O)C1c2ccccc2-c2ccc(N3C(=O)C=CC3=O)cc21 (stereo not drawn)
inactive: [17] 107 % of control | [18] 104 % of control | dose: 400.0 mg/kg/injection, schedule: Q04DX003 (ip), vehicle: saline with Tween-80 115 % of control

OC(CCl)Cc1ccccc1 (stereo not drawn)
inactive: [16] 93 % of control | dose: 50.0 mg/kg/injection, schedule: Q01DX009 (ip), vehicle: saline with Tween-80 90 % of control | dose: 100.0 mg/kg/injection, schedule: Q01DX009 (ip), vehicle: saline with Tween-80 92 % of control
